Values after ≈ are worked out from the molar mass of the structure shown. Like-named read-outs stand apart in the source and are kept apart here.
Assays:
[1] = test system: Toxoplasma gondii RH-GFP tachyzoites; assay: In vitro anti-Tg assay (RH-GFP tachyzoite proliferation in Hs27 cells); type: cell-based; conditions: for SI (selectivity index, CC30/IC50Tg): CC30 in Hs27 / IC50Tg; for IC50: Toxoplasma gondii, HS27, 96 h, read-out: IC50Tg in Tg-Infected Hs27 Cells
T98G glioblastoma cells = assay: Cytotoxicity against human glioblastoma T98G cells (MTT); type: cell-based; conditions: 24 h, read-out: IC50 against T98G cells
Method: The T98G glioblastoma cells (ATTC, CRL-1690, Manassas, VA, USA) were cultured in Dulbecco’s Modified Eagle Medium (DMEM, high glucose) (Sigma Aldrich, St. Louis, MO, USA), supplemented with 10% heat-inactivated FBS, penicillin (100 U/mL), and streptomycin (100 U/mL) (Sigma Aldrich, St. Louis, MO, USA). Cells were maintained in a humidified atmosphere of 5% CO2 and 95% air at 37 °C. Stock solutions of the investigated compounds (2, 7, 8 and 10, and temozolomide) were prepared by dissolving solid substances in sterile DMSO. T98G glioblastoma cells were seeded into 96-well sterile plates at a density of 4 × 10^4 cells/mL. After 24 h of incubation, the medium was removed from each well, and then the cells were incubated for the next 24 h with different concentrations of the investigated compounds ([…]) in the medium that contained 2% FBS. Viability of the T98G cells was evaluated using MTT assay. In brief, after 24 h of incubation of the cells with varying concentrations, 15 μL of MTT solution (5 mg/mL) was added to each well. After 3 h of incubation, […] (per well) of 10% SDS buffer solution was added. After overnight incubation, the absorbance was measured at 570 nm using a microplate reader (Epoch, BioTek Instruments, Winooski, VT, USA). Experiments were repeated three times, and the measurements in each experiment were run in quadruplicate. Viability of the investigated cells was expressed as % of the viability of the untreated cells.

in vitro = in vitro ADME; conditions: PAMPA, pH 7.4
Method: BBB permeability of 2, 7, 8, and 10 was investigated using a parallel artificial membrane permeability assay (PAMPA) method. The PAMPA system, which consisted of a 96-well microfilter plate, was divided into the following two chambers: a donor at the bottom and an acceptor at the top, separated by a 120 µm thick microfilter disc coated with BBB lipid solution (Pion, Inc., Billerica, MA, USA). The solutions of 2, 7, 8, and 10 were prepared in dimethylsulfoxide (DMSO) at 4 mg/mL concentration, and then diluted with Prisma buffer (pH = 7.4) to obtain the donor drug solution with the final nominal concentration of 20 µg/mL. Then, 180 µL of the donor solution was added to the donor wells. Subsequently, each filter membrane of the top plate was coated with 5 µL of BBB-1 lipid solution (Pion Inc., Billerica, MA, USA) and the acceptor well was filled with 200 µL of brain sink buffer (BSB). The acceptor plate and the donor plate were sandwiched together and incubated at 37 °C for 180 min.
The permeability coefficient value (Pe) was calculated using the following equation: Pe=−ln (1−CA/Cequilibrium)/S×(1/VD+1/VA)×t where VD—donor volume, VA—acceptor volume, Cequilibrium—equilibrium concentration, Cequilibrium=CD×VD+CA×VA/VD+VA , CD—donor concentration, CA—acceptor concentration, S—membrane area and t—incubation time (in seconds).

[2] = test system: Danio rerio embryos and larvae; assay: Fish embryo toxicity test (FET); type: in vivo; conditions: for Toxicity to zebrafish embryos and larvae: 5 µg/mL and 10 µg/mL, within 96 h of observation; for Concentration at which the impact on occurrence of deformations was noticeable / Mortality and deformity: zebrafish, 96 h exposure; for Mortality and deformity: concentrations above 50 μg/mL
Method: Danio rerio (Experimental Medicine Centre, Medical University of Lublin, Poland) were maintained at 28 ± 0.5 °C, under a 14/10 h light/dark cycle with standard aquaculture conditions. After mating, the fertilized eggs were collected within 30 min. Embryos were reared in E3 embryo medium (pH 7.1–7.3; […]) in an incubator (IN 110 Memmert GmbH, Germany) at 28 ± 0.5 °C. The eggs were examined to remove the unfertilized, coagulated and damaged samples. The FET test was performed based on the OECD Guidelines for the Testing Chemicals, Test No. 236. TZD hybrids were weighted, dissolved in DMSO as stock solutions, and diluted in E3 embryo medium to the indicated treatment concentrations. The stock of TZD hybrids and dilutions in E3 embryo medium were freshly prepared before testing. Embryos were incubated at each concentration (5, 10, 15, 25, 50, 75; 100 μg/mL) of TZD hybrids. The final DMSO concentration had no detectable effects on zebrafish development. The test was conducted in 24-well plates, with 5 embryos per well and 10 per group, in triplicate. The covered plates were kept at 28 ± 0.5 °C under the light/dark conditions (12 h/12 h). Embryonic viability, and the malformation rates of each treatment group were recorded at 24, 48, 72, and 96 hpf. All experiments were conducted in accordance with the National Institute of Health Guidelines for the Care and Use of Laboratory Animals and the European Community Council Directive for the Care and Use of Laboratory Animals (2010/63/EU). For the experiments on larvae up to 5 dpf, the agreement of the Local Ethical Commission is not required.

human red blood cells = assay: Hemolytic activity determination; type: cell-based
Method: Human red blood cell (RBC) concentrate was obtained from the Regional Blood Donation and Transfusion Centre (Lublin, Poland). The RBC concentrate (5 mL) was washed three times with sterile PBS and centrifuged at 500× g for 3 min. The obtained pellet was resuspended using sterile PBS in order to obtain a 2% suspension of RBCs, which was subsequently mixed with 1 mL of different concentrations (i.e., […]) of 2, 7, 8, and 10. The mixtures were incubated at 37 °C for 30 min and centrifuged at 1400× g for 10 min. The amount of free hemoglobin in the supernatants was measured spectrophotometrically at 405 nm. Negative and positive controls were performed by incubating RBCs with sterile PBS and 0.1% Triton-X, respectively. Each experiment was run in triplicate.

[3] = concentration reducing Hs27 viability by 30%, MTT, 24 h

| SMILES | CC30 in Hs27 Cells (Hs27 cells; [3]) | SI (selectivity index, CC30/IC50Tg) [1] | IC50 [1] | IC50 (T98G glioblastoma cells) | Papp at 180 min, 20 µg/mL (in vitro) | Toxicity to zebrafish embryos and larvae [2] | Concentration at which the impact on occurrence of deformations was noticeable [2] | Mortality and deformity [2] | Hemolytic activity (in words) (human red blood cells) | CC30 in Hs27 Cells (Hs27 cells; human) |
| --- | --- | --- | --- | --- | --- | --- | --- | --- | --- | --- |
| O=C(CC1SC(=O)NC1=O)Oc1ccc(/C=N/NC(=O)c2ccncc2)cc1Cl (centres unmarked) [compound 5] | >1082.10 µg/mL | >44.48 | 24.3 µg/mL (≈ 56.2 µM) |  |  |  |  |  |  |  |
| COc1cc(/C=N/NC(=O)c2ccncc2)ccc1OC(=O)CC1SC(=O)NC1=O (centres unmarked) [compound 3] | >1071.05 µg/mL | >48.35 | 22.1 µg/mL (≈ 51.7 µM) |  |  |  |  |  |  |  |
| NC(=S)N/N=C/c1ccc(OC(=O)/C=C2\SC(=O)NC2=O)c(Cl)c1 [compound 12] | >962.05 µg/mL | >94.59 | 10.2 µg/mL (≈ 26.4 µM) |  |  |  |  |  |  |  |
| O=C(/C=C1\SC(=O)NC1=O)Oc1cccc(/C=N/NC(=O)c2ccncc2)c1 [compound 1] | 128.27 µg/mL (≈ 324 µM) | 9.92 | 12.9 µg/mL (≈ 32.6 µM) |  |  |  |  |  |  |  |
| CCc1nc(N)nc(N)c1-c1ccc(Cl)cc1 [PYR, pyrimethamine, reference compound] | 49.62 µg/mL (≈ 200 µM) | 17.38 | 2.86 µg/mL (≈ 11.5 µM) |  |  |  |  |  |  |  |
| COc1cc(/C=N/NC(N)=S)ccc1OC(=O)/C=C1\SC(=O)NC1=O [compound 11] | >951.00 µg/mL | >78.81 | 12.1 µg/mL (≈ 31.7 µM) |  |  |  |  |  |  |  |
| Cn1nnc2c(C(N)=O)ncn2c1=O [Temozolomide, temozolomide, reference compound] |  |  |  | > 100 µg/mL |  |  |  |  |  |  |
| NC(=S)N/N=C/c1ccc(OC(=O)CC2SC(=O)NC2=O)c(Cl)c1 (centres unmarked) [compound 8] | >967.09 µg/mL | >110.67 | 8.74 µg/mL (≈ 22.6 µM) | > 100 µg/mL | 26.1 ± 1.3 ×10⁻⁶ cm/s | not toxic | 25000 ng/mL | 100% | no specific hemolytic activity |  |
| O=C1C(O)=C([C@H]2CC[C@H](c3ccc(Cl)cc3)CC2)C(=O)c2ccccc21 [ATO, atovaquone, reference compound] | 54.26 µg/mL (≈ 148 µM) | 227.55 | 0.24 µg/mL (≈ 0.654 µM) |  |  |  |  |  |  |  |
| CCOc1cc(/C=N/NC(=O)c2ccncc2)ccc1OC(=O)CC1SC(=O)NC1=O (centres unmarked) [compound 4] | 654.42 µg/mL (≈ 1480 µM) | 16.77 | 39 µg/mL (≈ 88.2 µM) |  |  |  |  |  |  |  |
| O=C(CC1SC(=O)NC1=O)Oc1ccc(/C=N/NC(=O)c2ccncc2)cc1Br (centres unmarked) [compound 6] | >1193.22 µg/mL | >43.81 | 27.2 µg/mL (≈ 57.1 µM) |  |  |  |  |  |  |  |
| Nc1ccc(S(=O)(=O)Nc2ncccn2)cc1 [SDZ, sulfadiazine, reference compound] |  | 1.78 | 1250 µg/mL (≈ 5010 µM) |  |  |  |  |  |  | 2230.61 µg/mL (≈ 8910 µM) |
| NC(=S)N/N=C/c1ccc(OC(=O)CC2SC(=O)NC2=O)cc1 (centres unmarked) [compound 7] | >880.97 µg/mL | >148.28 | 5.94 µg/mL (≈ 16.9 µM) | > 100 µg/mL | 23.1 ± 0.71 ×10⁻⁶ cm/s | not toxic | 25000 ng/mL | 100% | no specific hemolytic activity |  |
| NC(=S)N/N=C/c1ccc(OC(=O)/C=C2\SC(=O)NC2=O)cc1 [compound 10] | 312.27 µg/mL (≈ 891 µM) | 58.71 | 5.32 µg/mL (≈ 15.2 µM) | 94.6 ± 6.16 µg/mL (≈ 270 µM) | 24.4 ± 0.93 ×10⁻⁶ cm/s | not toxic |  | 100% | no specific hemolytic activity |  |
| COc1cc(Cc2cnc(N)nc2N)cc(OC)c1OC [TRI, trimethoprim, reference compound] |  | 5.53 | 14.8 µg/mL (≈ 50.9 µM) |  |  |  |  |  |  | 81.82 µg/mL (≈ 282 µM) |
| NC(=S)N/N=C/c1ccc(OC(=O)CC2SC(=O)NC2=O)c(Br)c1 (centres unmarked) [compound 9] | >1078.21 µg/mL | >87.75 | 12.3 µg/mL (≈ 28.5 µM) |  |  |  |  |  |  |  |
| O=C(CC1SC(=O)NC1=O)Oc1ccc(/C=N/NC(=O)c2ccncc2)cc1 (centres unmarked) [compound 2] | >995.98 µg/mL | >118.93 | 8.37 µg/mL (≈ 21 µM) | 19.4 ± 1.13 µg/mL (≈ 48.6 µM) | 12.4 ± 1.02 ×10⁻⁶ cm/s | not toxic |  | 100% | no specific hemolytic activity |  |

Source: paper PMC9916616, “TZD-Based Hybrid Molecules Act as Dual Anti-Mycobacterium tuberculosis and Anti-Toxoplasma gondii Agents” (International Journal of Molecular Sciences, 2023)
